Results taken from patent US20240398823A1, “DUAL INHIBITOR OF HISTONE DEACETYLASE 6 AND HEAT SHOCK PROTEIN 90” (TAIPEI MEDICAL UNIVERSITY, priority 2021, published 2024).

Experiments:
CT26 tumor recurrence = CT26 tumor recurrence after tumor removal and re-inoculation; type: in vivo, mouse; conditions: 50 mg/kg every two days, day 37
Procedure: Stage 1: CT26 was injected subcutaneously into the left dorsum of immunocompetent mice (BALB/c), and Compound 75 treatment was started after 3 days, administered intravenously at a dose of 50 mg/kg every two days (7 doses in total). After tumor removal, tumor cells were isolated for in vitro culture (untreated tumor control-tumor; Compound 75-treated tumor: Compound 75-tumor). Stage 2: On day 17, the isolated tumor cells were injected subcutaneously into the right side of the mouse back and the mice were sacrificed on day 37 (as shown in FIG. 14A). […] Data are mean t S.E.M. N values greater than 4.
Whether Compound 75 induces the performance of memory T cells to prevent tumor recurrence was further investigated. Mouse colorectal cancer cells (CT26) were inoculated into the back of immunocompetent mice (BALB/c) and gave control or Compound 75 (50 mg/kg) every two days after 3 days, and removed the tumors on day 14. The cancer cells were isolated and cultured in vitro. The isolated cancer cells were re-injected into the back of the mice on day 17 and the mice were sacrificed on day 37 (FIG. 14A). […] However, in the control group (control/control-tumor), 4 out of 5 cancer recurrences occurred and the tumors were larger (FIGS. 14B, 14C and 14D).

HDAC1 = biological target: T1, HDAC1 (Homo sapiens, UniProt Q13547); test: HDAC enzymes inhibition assay (Reaction Biology), HDAC1; type: biochemical; conditions: 10-dose, 3-fold dilution from 10 μM, single experiment
T1 construct: Reaction Biology Corporation (ran the assay as a service)

[1] = Toxicity, body weight and blood counts in BALB/c mice with CT26 tumors; type: in vivo
serum TGF-β and IL-2 = test: Serum cytokines in CT26 tumor mice; type: in vivo, mouse; conditions: day 25, 10, 25, 50 mg/kg
Procedure: FIGS. 11A and 11B show effects of Compound 75 on peripheral blood cytokines. BALB/c mice with CT26 tumors were treated with 10, 25 and 50 mg/kg of Compound 75 every two days and sacrificed on day 25. Data are expressed as mean t S.D. N values greater than 3. *P<0.05; ** P<0.01; *** P<0.001, compared to the control group.
The reasons for the decrease of Treg in blood were further investigated.

[2] = system: PD-L1 expression in HCT116, LS174T, Mia paca-2, BXPC3, A549 and CT26 cells; test: IFN-γ-induced cell membrane PD-L1 in different cancer cell lines by flow cytometry; type: cell-based, human; mouse; conditions: Mia paca-2, BXPC3, A549, CT26, co-treated 48 hours
Procedure: The cells were tested in 6-well plates with 32×10^4 cells/well and co-treated with Compound 75 for 48 hours and analyzed by flow cytometry. Bar, SD. […] The effects of the HSP90/HDAC6 dual inhibitors as described in Synthesis Examples (such as Compounds 63, 64, and 66 to 76) on PD-L1 expression were evaluated. Cells were seeded in 6-well plates (3.2×10^5 cells/well) and treated on the next day with […] and compounds or DMSO (vehicle) at indicated concentrations for 48 h. The treated cells were suspended (3×10^5 cells/tube) and stained with PD-L1 antibody (Invitrogen, Waltham, USA) and FITC-conjugated secondary antibodies on ice for 1 h. The fluorescence signal of the cells was analyzed by FASCalibur flow cytometer and CellQuest software (BD Biosciences, San Jose, CA, USA). Using flow cytometry, whether Compound 75 could downregulate […]-induced PD-L1 performance in different cancer cell lines was evaluated, namely human colorectal cancer cell lines (HCT116 and LS174T), human pancreatic cancer cell lines (Mia paca-2 and BXPC3), human lung cancer cell line (A549) and mouse colorectal cancer cell line (CT26).

HCT116 = test: MTT assay, survival of human colorectal cancer cells HCT116; type: cell-based; conditions: HCT-116, 48 h, mean ± SD, read-out: Human cell lines HCT116 IC50(μM ± SD)
Procedure: The effects on cell viability of the HSP90/HDAC6 dual inhibitors as described in Synthesis Examples (such as Compounds 63, 64, and 66 to 76) were evaluated. Cells were seeded in 96-well plates (5000 cells/well). The next day, the serially diluted drugs were added into the wells and incubated at 37° C. for 48 h. Cell viability was measured by the MTT assay and is expressed as percentages of surviving drug-treated cells relative to untreated control cells. The IC50 was calculated by non-linear regression analysis.
The inhibitory effect of the HSP90/HDAC6 dual inhibitors as described in Synthesis Examples on the survival rate of human colorectal cancer cells HCT116 is evaluated using MTT assay.

[3] = CT26 in Balb/c, 10, 25, 50 mg/kg i.v. every two days

T1 sequence (Q13547 whole entry): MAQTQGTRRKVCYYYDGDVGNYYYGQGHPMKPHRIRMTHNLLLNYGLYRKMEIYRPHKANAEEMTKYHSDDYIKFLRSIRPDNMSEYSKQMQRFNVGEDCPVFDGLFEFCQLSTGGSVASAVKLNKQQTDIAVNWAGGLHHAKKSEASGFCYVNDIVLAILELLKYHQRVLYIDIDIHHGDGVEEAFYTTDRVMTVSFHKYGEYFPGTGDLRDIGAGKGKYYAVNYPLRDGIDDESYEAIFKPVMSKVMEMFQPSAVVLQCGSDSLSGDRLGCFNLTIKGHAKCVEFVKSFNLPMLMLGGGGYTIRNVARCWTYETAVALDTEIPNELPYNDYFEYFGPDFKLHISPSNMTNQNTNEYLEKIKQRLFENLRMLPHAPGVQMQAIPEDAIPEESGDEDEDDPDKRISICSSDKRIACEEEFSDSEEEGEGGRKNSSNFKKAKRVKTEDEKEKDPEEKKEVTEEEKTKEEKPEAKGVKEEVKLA

COc1ccc(N(Cc2ccc(C(=O)NO)cc2)C(=O)c2cc(C(C)C)c(O)cc2O)cc1 [Compound 75, 2,4-Dihydroxy-N-(4-hydroxycarbamoyl-benzyl)-5-isopropyl-N-(4-methoxy-phenyl)-benzamide]
cancer recurrence, re-inoculated with Compound 75-treated cancer cells (CT26 tumor recurrence; group comp.75/comp.75-tumor): only one mouse suffered cancer recurrence
cancer recurrence, re-inoculated with control cancer cells (CT26 tumor recurrence; group comp.75/control-tumor): only one mouse suffered cancer recurrence
IC50 (HDAC1): 616 nM
body weight [1, 3]: no significant change in body weight
toxicity in mice [1, 3]: no significant toxicity
white blood cell, lymphocyte, red blood cell, hemoglobin and platelet counts, lymphocyte percentage ([1]; blood from heart on day 25, 10, 25, 50 mg/kg every two days, versus control group): not significantly different
organ toxicity or hematotoxicity ([1]; immunocompetent mice): does not cause significant organ toxicity or hematotoxicity
serum IL-2 (serum TGF-β and IL-2): had no effect
serum TGF-β expression (serum TGF-β and IL-2): significantly reduced
IFN-γ-induced cell membrane protein PD-L1 expression [2]: inhibits all IFN-7-induced cell membrane protein PD-L1 expression
IC50 (HCT116): 0.27 ± 0.01 µM
